Data on 14 compounds can be found in patent US20070088033A1, “Diaryl Substituted Pyridinones” (priority 2002, published 2007).

Each structure is given as a SMILES string.

As a reminder, the melting point is the temperature of the solid-liquid transition. Compound `NC(=NO)c1ccc(Cn2ccc(OCc3ccccc3)c(Br)c2=O)cc1` [Example 24, 4-{[4-(benzyloxy)-3-bromo-2-oxopyridin-1(2H)-yl]methyl}-N′-hydroxybenzenecarboximidamide] returned a melting point of 210.2 to 212.2 °C.

Consider `O=c1c(Br)c(OCc2ccccc2)ccn1CCc1cccs1` [Example 30, 4-(benzyloxy)-3-bromo-1-(2-thien-2-ylethyl)pyridin-2(1H)-one], for which the melting point was in the range of 128 to 129.5 °C. With `Cn1ccc(OCc2ccccc2)c(Br)c1=O` [Example 23, 4-(benzyloxy)-3-bromo-1-methylpyridin-2(1H)-one] the figure was 61.3 to 64.8 °C. For the compound `Cl.O=c1c(Br)c(OCc2ccccc2)ccn1CC1CCCNC1` (centres unmarked), the melting point fell in the range of 138.1 to 139.2 °C.

For `O=c1c(Br)c(OCc2ccccc2)ccn1Cc1cccc(C(F)(F)F)c1` [Example 31, 4-(benzyloxy)-3-bromo-1-[3-(trifluoromethyl)benzyl]pyridin-2(1H)-one], the melting point was 181.5 to 181.6 °C. `O=c1c(Br)c(OCc2ccccc2Cl)ccn1Cc1ccccc1` [Example 43, 1-Benzyl-3-bromo-4-[(2-chlorobenzyl)oxy]pyridin-2(1H)-one] yielded a melting point of 143.3 to 145.5 °C. With `CCn1ccc(OCc2ccccc2)c(Br)c1=O` [Example 20, 4-(benzyloxy)-3-bromo-1-ethylpyridin-2(1H)-one] the figure was 61.3 to 64.8 °C.

`Cc1ccc(Cn2ccc(OCc3ccccc3)c(Br)c2=O)cc1` [Example 2, 4-(benzyloxy)-3-bromo-1-(4-methylbenzyl)pyridin-2(1H)-one] had a melting point of 150.4 to 151.2 °C. Next, `O=c1c(Br)c(O)ccn1Cc1ccc(O)cc1` [Example 21, 3-bromo-4-hydroxy-1-(4-hydroxybenzyl)pyridin-2(1H)-one]: 102 to 108 °C; `Cc1ccc(Cn2ccc(OCc3ccccc3)cc2=O)cc1` [Example 1, 4-(benzyloxy)-1-(4-methylbenzyl)pyridin-2(1H)-one]: 142.8 to 143.3 °C. With `O=C(O)c1ccc(Cn2ccc(OCc3ccccc3)c(Br)c2=O)cc1` [Example 15, 4-{[4-(benzyloxy)-3-bromo-2-oxopyridin-1(2H)-yl]methyl}benzoic acid] the figure was 250.8 to 255.7 °C; with `O=c1c(Br)c(OCc2ccccc2)ccn1Cc1ccc(OCc2ccccc2)cc1` [Example 12, 4-(benzyloxy)-1-[4-(benzyloxy)benzyl]-3-bromopyridin-2(1H)-one], 137.6 to 144.3 °C. With `Cl.O=c1c(Br)c(OCc2ccccc2)ccn1CC1CCNCC1` the figure was 207.9 °C; with `O=c1cc(OCc2c(Cl)cccc2Cl)ccn1Cc1ccccc1` [Example 40, 1-Benzyl-4-[2,6-(dichlorobenzyl)oxy]pyridin-2(1H)-one], 151.6 to 152 °C.
